In patent US10100011B2, “Pentadienoyl piperidine derivative and use thereof” (Industry-Academic Cooperation Foundation, Yonsei University, priority 2014, dated 2018):

What was measured:
3T3L1 cells = assay: Adipocyte differentiation inhibition in preadipocytes (Oil-red O staining); type: cell-based, mouse; details: Mus musculus, 3T3-L1, treated every two days during 14 days differentiation, Oil-red O O.D. 600 nm, read-out: adipocyte differentiation inhibition activity, EC50 value
Description: Preadipocytes, 3T3L1 cells, were aliquoted into a 12-well plate and cultured in a DMEM medium containing 1% penicillin-streptomycin, 1% nonessential amino acid, and 10% fetal bovine serum (FBS) in a 5% CO2 incubator at 37° C. until confluence. The 3T3L1 cells grown to confluence were cultured for two days in a medium containing 0.5 mM isobutyl-methylxanthine, 1 μM dexamethasone (MDI), and 1 μg/ml insulin, thereby being differentiated into adipocytes. Subsequently, the differentiated adipocytes were further cultured for two days in a DMEM medium including 1 μg/ml insulin, thereby being differentiated into mature adipocytes. Subsequently, the differentiated mature adipocytes were further cultured for 10 days while replacing a used DMEM medium with a new DMEM medium every two days. As a result, completely differentiated adipocytes were formed.
3T3-L1 cells were treated with each of a total of four novel compound types at different concentrations every two days from the first day of cell differentiation induction by addition of DMI. Each of the derivative compounds was dissolved in DMSO and then used. A negative control group including only DMSO was included in this experiment. Cell culture was carried out for 14 days. When differentiation was completed, a medium was removed and lipid droplets contained in differentiated adipocytes were stained. To stain the lipid droplets, cells were washed with phosphate buffered saline (PBS) twice and then fixed with 10% buffered neutral formalin for one hour, followed by washing with PBS once. Subsequently, 1 ml of Oil-red-O dye for staining lipid droplets red was fed into a 12-well plate and lipid droplets were stained for one hour, followed by washing with distilled water twice. To measure the concentration of neutral fat contained in the differentiated 3T3L1 cells, the stained lipid droplets were dissolved in 1 ml of isobutanol, followed by measuring an O.D value at 600 nm.

C57BL/6J mice = assay: Liver weight, liver tissue lipid concentrations and hepatic function indicators in blood of mice fed high-fat diet; type: in vivo, mouse; details: about 0.05% compound in high-fat diet, 10 weeks
Description: An obesity induction diet used in this experiment was a high-fat diet (HFD: 40% fat calories, 17 g of lard+3% corn oil/100 g diet), and the compositions of diets including the LJ-2501, LJ-2488, LJ-2495, LJ-2496 compounds were identical to that of HFD, except that each of the compounds was included in an amount of about 0.05% (Table 2). As a control drug, an anti-obesity drug, sibutramine (Sibut), was added in an amount of about 0.01% to the high-fat diet and a normal diet group (Chow) was fed with commercial rodent chow.
5-week old 40 male C57BL/6J mice (Orient Bio., Korea) were fed with hard feed and accommodated in a laboratory environment for one week. Subsequently, in accordance with a randomized block method, the mice were randomly grouped into a normal diet group, a high-fat diet control group, two experimental substance groups, and […] and raised for a total of 10 weeks (n=8/group). Diets were supplied with water between 10 am and 11 am every day. An intake amount was measured every day and the body weights of the mice were measured every week. To prevent temporal weight change due to feed intake, feedboxes were removed and, after two hours, the body weights were measured. The experimental animals were fasted for 12 hours or more and then anesthetized with diethyl ether, followed by collecting blood, liver, and visceral adipose tissues (epididymal fat, perirenal fat, mesenteric fat, and retroperitoneal fat). The collected samples were washed with 0.1 M phosphate buffered saline (pH 7.4) and then weighed. Blood samples collected from abdominal aortas were centrifuged at 1000×g for 15 minutes, thereby separating plasma.
Lipid components were extracted from liver tissue in accordance with the method by Folch, et al. (Folch J, Lees M, Sloane Stanley G H. A simple method for the isolation and purification of total lipids from animal tissues. J Biol Chem. 1957; 226:497-509). In particular, 1 mL of distilled water was added to 0.25 g of a liver tissue sample and then homogenized by means of a Polytron homogenizer (IKA-WERKE GmbH & Co., Ultra-Turrax, Staufen, Germany). To the homogenized solution, 5 mL of a solution including chloroform and methanol (mixed in a ratio of 2:1, v/v) was added, followed by uniformly mixing. Subsequently, centrifugation was carried out at 1000×g for 10 minutes and a lower solution was separated. To a formed supernatant, 2 mL of a mixture including chloroform and methanol (mixed in a ratio of 2:1, v/v) was added, followed by repeating the same procedure. As a result, lipid components were completely isolated from the liver samples. To an obtained lower solution, 3 mL of a mixture including chloroform, methanol, and 0.05% CaCl2 (mixed in a ratio of 3:48:47, v/v/v) was added, followed by mixing for one minute. Subsequently, centrifugation was carried out at 1000×g for 10 minutes. A final lower solution was collected and completely dried with a nitrogen gas. Subsequently, the dried lipid was dissolved in 1 mL of methanol and used for lipid component analysis. The concentrations of neutral fat and cholesterol in the lipid extracts extracted from the liver tissue were measured using the same commercial lipid analysis kit (Bio Clinical System) as that used in the plasma analysis.
Glutamate oxaloacetate transferase (GOT) and glutamate pyruvate transferase (GPT) activity in serum during fasting were measured by means of an automatic biochemical analyzer (Express Plus, Chiron Diagnostics Co., USA). A kit for analysis was purchased from Bayer (Tarrytown, N.Y., USA).

## CSc1ccc(/C=C/C=C/C(=O)N2CCCCC2)cc1 [LJ-2501, (2E,4E)-5-(4-(methylthio)phenyl)-1-(piperine-1-yl)penta-2,4-diene-1-one]
3T3L1 cells
  EC50: 101 µM
C57BL/6J mice
  hepatic function indexes (ALT, AST) in the blood, reduction compared to HFD: 60-65%
  liver tissue cholesterol concentration, reduction compared to HFD: 53%
  liver tissue free fatty acid concentration, reduction compared to HFD: 77%
  liver tissue neutral fat concentration, reduction compared to HFD: 35%
  liver weight, reduction compared to high-fat diet control group: 41%
  size of the liver compared to HFD group (photograph): relatively small
